Results taken from patent publication US4913907A, “Porphycene anti-cancer agents and treatment methods” (Cytopharm, Inc., priority 1988, dated 1990).
Where two headings read alike, the source gives them in different places. Each block holds one molecule with its values, some of them ahead of it.

Columns and labels:
[1] = Tissue analysis: recovery of TPP from serum and tissues after injection; format: in vivo, mice; settings: 2 mg/kg; for concentration at 3 h / concentration at 24 h: mouse, iv, average of 6 mice, maximum deviation ±20%; for concentration at 3 h: 3 hours after injection; for concentration at 24 h: 24 hours after injection
Method: At each of 3 hours and 24 hours after injection, six mice were sacrificed by exposure to ether vapor, and the serum or specific tissue were removed. About 2 mL of blood was taken intracardially and centrifuged for 15 minutes at 3,000 rpm to remove the erythrocytes. The serum was collected, diluted with 2% aqueous SDS and assayed for TPP content spectrophotofluorimetrically (λex =560 nm). The fluorescence emitted in the 580-740 nm interval was converted into TPP concentration by interpolation with a calibration plot.
The tumor and predetermined normal tissues were removed, washed twice with PBS, and a weighed amount of tissue (approximately 200 mg) was finely minced and homogenized in a Potter vessel with 4 mL chloroform. The dispersion was centrifuged at 3,000 rpm for 15 minutes; the supernatant was collected and its TPP content was estimated spectrophotofluorimetrically as described above. Rehomogenization of the sediment under the same conditions gave less than 3% of the TPP extracted in the original step. […]
The recovery of TPP from serum and various tissues of the tumor-bearing mice at 3 hours and 24 hours after injection are shown in Table 1. The samples from each animal were analyzed separately, and are table values represent the average recovery data from the single tissues of 6 mice. The maximum deviation from the reported values was ±20%.

[2] = Distribution and clearance in a mouse model (statement in the description); format: in vivo
[3] = cited from earlier work
[4] = tested on: MS-2 fibrosarcoma; test: Phototherapy of tumor-bearing mice, tumor response; format: in vivo, Female Balb/c mice
Method: By the seventh day after transplantation, the tumors had reached a diameter of approximately 0.8 cm.
(§1) Each mouse was intravenously injected with 2 mg./kg. of 2,7,12,17-tetra-n-propylporphycene (TPP) incorporated into small umilamellar liposomes of dipalmitoyl-phosphatidylcholine (DPPC), prepared according to the procedures of Example 2, on the seventh day after transplantation. At this time the diameter of the tumor was approximately 0.8 cm.
(§2) 24 hours after TPP injection, the tumor area was exposed to 600-690 nm. light isolated by optical filtration from the emission of a 250 W quartz-halogen lamp through a set of optical filters (Teclas, Lugano, Switzerland). The light beam was focused into a bundle of optical fibers having an external diameter of 6 mm. The tip of the fiber was kept at a distance of 1 cm from the tissue surface. The lamp was operated at a dose-rate of 230 mW/cm^2, and the total delivered light dose was 150 J/cm^2 or 300 J/cm^2.

[5] = tested on: normal skin; test: Phototherapy, photoinduced damage of irradiated normal skin; format: in vivo, Female Balb/c mice
Method: as §1, §2
An equal area of normal skin on the left hind leg was irradiated in each mouse immediately after tumor irradiation using an identical protocol.

[6] = Solubility; format: physicochemical
[7] = brain, read-out: Recovery, brain
[8] = liver, read-out: Recovery, liver
[9] = muscle, read-out: Recovery, muscle
[10] = tumor, read-out: Recovery, tumor
[11] = 2 mg/kg i.v., 300 J/cm^2 at 24 hours after TPP injection

- concentration at 3 h [1, 7]: < 10 ng/g
- concentration at 24 h [1, 7]: < 10 ng/g
- concentration at 3 h ([1]; kidneys, read-out: Recovery, kidneys): 1250 ng/g
- concentration at 3 h [1, 8]: 13000 ng/g
- concentration at 24 h [1, 8]: 11100 ng/g
- concentration at 3 h [1, 9]: 140 ng/g
- concentration at 24 h [1, 9]: 90 ng/g
- concentration at 24 h ([1]; serum, read-out: Recovery, serum): 25600 ng/mL
- concentration at 3 h ([1]; skin, read-out: Recovery, skin): 290 ng/g
- concentration at 24 h ([1]; skin, read-out: Recovery, skin): 440 ng/g
- concentration at 24 h ([1]; spleen, read-out: Recovery, spleen): 2940 ng/g
- concentration at 3 h [1, 10]: 690 ng/g
- concentration at 24 h [1, 10]: 1500 ng/g
- recovery from the tumor ([1]; tumor tissue, time not stated): approximately 1 μg/g
- drug clearance route ([2]; mouse model): via the liver rather than by the kidneys
SMILES: CCCC1=Cc2nc1ccc1[nH]c(cc1CCC)c1nc(ccc3[nH]c2cc3CCC)C(CCC)=C1 [TPP, 2,7,12,17-tetra-n-propylporphycene]
- tumor uptake as compared to skin or muscle tissue ([2]; 24 hours post-injection): concentrate preferentially in tumor tissue as compared to skin or muscle tissue
- uptake by the brain ([2]; mouse model): little or no porphycene uptake by the brain
- absorption above 620 nm [3]: high absorption above 620 nm
- onset of tumor necrosis ([4]; 2 mg/kg i.v. in DPPC liposomes, 300 J/cm^2 of 600-690 nm light at 24 hours after TPP injection): massive tumor necrosis
- tumor necrosis ([4]; 2 mg/kg i.v., 150 J/cm^2 of red light at 24 hours after TPP injection): equally deep necrosis, however less extensive
- eschar formation complete within [4, 11]: ≤ 3 days
- time until depth of necrosis reached bone [4, 11]: about 7 days
- erythema, disappearance ([5]; irradiated TPP-treated mice): disappeared within about one week
- photoinduced damage at the level of the normal skin ([5]; irradiated TPP-treated mice, most animals, mainly erythema): developed some photoinduced damage at the level of the normal skin
- erythema, diameter ([5]; irradiated TPP-treated mice, generally): less than 0.3 cm
- photosensitivity at the irradiated normal skin ([5]; left hind leg, identical irradiation protocol): Some photosensitivity was also observed

SMILES: C1=Cc2nc1ccc1ccc([nH]1)c1nc(ccc3ccc2[nH]3)C=C1 [porphycene]
- absorption above 620 nm [3]: high absorption above 620 nm
- solubility in water and pharmaceutically suitable solvents [6]: not soluble in water and pharmaceutically suitable solvents
